The structures appear in SMILES notation. Some results are limits rather than exact numbers.

The test relates to Huh-7 HCV replicon cells (sub-line 5-15; genotype 1b). The test can be described thus: Replicon ELISA cell based assay, genotype 1b (sub-line 5-15). Also on record: species or system HCV genotype 1b. Conditions: Hepatitis C virus, Huh-7 genotype 1b replicon sub-line 5-15, 72 hours. How it is done: Replicon ELISA Cell Based Assay
100 μL of medium containing 10% FCS were added to each well of clear, flat-bottomed 96 well microplates, excepting wells in the top row. Test compound was diluted in assay medium to twice the final required starting concentration from a 40 mM stock solution in DMSO. 200 μL of the starting dilution were introduced into two wells each in the top row and doubling dilutions made down the plate by the sequential transfer of 100 μL aliquots with thorough mixing in the wells; the final 100 μL were discarded. The two bottom rows were not used for compound dilutions. Huh-7 HCV replicon cell monolayers nearing confluency were stripped from growth flasks with versene-trypsin solution and the cells were resuspended in assay medium at either 2×10^5 cells/mL (sub-line 5-15; genotype 1b; Lohmann, V., Korner, F., Koch, J-O., Herian, U., Thielmann, L. and Bartenschlager, R., 1999, Science, 285, pp 110-113) or at 3×10^5 cells/mL (genotype 1a; Gu, B., Gates, A.T., Isken, O., Behrens, S. E. and Sarisky, R. T., J. Virol., 2003, 77, 5352-5359). 100 μL of cell suspension were added to all wells and the plates incubated at 37° C. for 72 hours in a 5% CO2 atmosphere.
Following incubation, the assay medium was aspirated from the plates. The cell sheets were washed by gentle immersion in phosphate buffered saline (PBS), which was then aspirated off, and fixed with acetone:methanol (1:1) for 5 minutes. Following a further wash with PBS, 100 μL of ELISA diluent (PBS+0.05% v/v Tween 20+2% w/v skimmed milk powder) were added to all wells and the plates incubated at 37° C. for 30 minutes on an orbital platform. The diluent was removed and each well then received 50 μL of a 1/200 dilution of anti-HCV specific, murine, monoclonal antibody (either Virostat #1872 or #1877), except for wells in one of the compound-free control rows which received diluent alone to act as negative controls. The plates were incubated at 37° C. for 2 hours and washed 3 times with PBS/0.05% Tween 20, then 50 μL of horseradish peroxidase conjugated, anti-mouse, rabbit polyclonal serum (Dako #P0260), diluted 1/1000, were added to all wells. The plates were incubated for a further hour, the antibody removed and the cell sheets washed 5 times with PBS/Tween and blotted dry. The assay was developed by the addition of 50 μL of ortho-phenylenediamine/peroxidase substrate in urea/citrate buffer (SigmaFast, Sigma #P-9187) to each well, and colour allowed to develop for up to 15 minutes. The reaction was stopped by the addition of 25 μL per well of 2 M sulphuric acid and the plates were read at 490 nm on a Fluostar Optima spectrophotometer.
The substrate solution was removed and the plates were washed in tap water, blotted dry and the cells stained with 5% carbol fuchsin in water for 30 minutes. The stain was discarded and the cell sheets washed, dried and examined microscopically to assess cytotoxicity.
The absorbance values from all compound-free wells that had received both primary and secondary antibodies were averaged to obtain a positive control value. The mean absorbance value from the compound-free wells that had not received the primary antibody was used to provide the negative (background) control value. The readings from the duplicate wells at each compound concentration were averaged and, after the subtraction of the mean background from all values, were expressed as a percentage of the positive control signal. The quantifiable and specific reduction of expressed protein detected by the ELISA in the presence of a drug can be used as a measure of replicon inhibition. GraFit software (Erithacus Software Ltd.) was used to plot the curve of percentage inhibition against compound concentration and derive the 50% inhibitory concentration (IC50) for the compound.
With `COC[C@H]1C[C@@](CC(C)C)(C(=O)O)N(C(=O)c2ccc(C(C)(C)C)c(OC)c2)[C@H]1c1nccs1` (racemic) [Compound A, rel-(2S,4S,5R)-2-isobutyl-1-(3-methoxy-4-tert-butylbenzoyl)-4-methoxymethyl-5-(1,3-thiazol-2-yl)pyrrolidine-2-carboxylic acid, reference compound], the half-maximal inhibitory concentration (IC50) (usually the concentration at which inhibition is half-maximal) lay in the range of 150 to 10000 nM.

For `COC[C@H]1C[C@@](Cc2ccccc2)(C(=O)O)N(C(=O)c2ccc(C(C)(C)C)c(OC)c2)[C@H]1c1nccs1` (racemic) [Compound E, rel-(2R,4S,5R)-2-benzyl-1-(3-methoxy-4-tert-butylbenzoyl)-4-methoxymethyl-5-(1,3-thiazol-2-yl)-pyrrolidine-2-carboxylic acid, reference compound], the concentration for half-maximal inhibition (IC50) lay in the range of 150 to 10000 nM.

Consider `COC[C@H]1C[C@@](Cc2cscn2)(C(=O)O)N(C(=O)c2ccc(C(C)(C)C)c(OC)c2)[C@H]1c1ncc(C)s1` (racemic) [Example 1, rel-(2R,4S,5R)-1-(3-Methoxy-4-tert-butylbenzoyl)-4-(methoxymethyl)-5-(5-methyl-1,3-thiazol-2-yl)-2-(1,3-thiazol-4-ylmethyl)pyrrolidine-2-carboxylic acid], for which the IC50 was < 150 nM.

Take `COC[C@H]1C[C@@](Cc2cscn2)(C(=O)O)N(C(=O)c2ccc(C(C)(C)C)c(OC)c2)[C@H]1c1nccs1` (racemic) [Example 3, rel-(2R,4S,5R)-1-(3-Methoxy-4-tert-butylbenzoyl)-4-(methoxymethyl)-5-(1,3-thiazol-2-yl)-2-(1,3-thiazol-4-ylmethyl)pyrrolidine-2-carboxylic acid]: the IC50 was < 150 nM.

For the compound `COC[C@H]1C[C@@](Cc2ccsn2)(C(=O)O)N(C(=O)c2ccc(C(C)(C)C)c(OC)c2)[C@H]1c1nccs1` (racemic) [Example 4, rel-(2R,4S,5R)-1-(3-Methoxy-4-tert-butylbenzoyl)-4-(methoxymethyl)-5-(1,3-thiazol-2-yl)-2-(1,2-thiazol-3-ylmethyl)pyrrolidine-2-carboxylic acid], the IC50 was < 150 nM.

`COC[C@H]1C[C@@](Cn2cccn2)(C(=O)O)N(C(=O)c2ccc(C(C)(C)C)c(OC)c2)[C@H]1c1nccs1` (racemic) [Example 6, rel-(2R,4S,5R)-1-(3-Methoxy-4-tert-butylbenzoyl)-4-(methoxymethyl)-2-(1H-pyrazol-1-ylmethyl)-5-(1,3-thiazol-2-yl)pyrrolidine-2-carboxylic acid]: the IC50 was < 150 nM.

Consider `COC[C@H]1C[C@@](Cc2nccs2)(C(=O)O)N(C(=O)c2ccc(C(C)(C)C)c(OC)c2)[C@H]1c1ncc(C)s1` (racemic) [Example 8, rel-(2R,4S,5R)-1-(3-Methoxy-4-tert-butylbenzoyl)-4-(methoxymethyl)-5-(5-methyl-1,3-thiazol-2-yl)-2-(1,3-thiazol-2-ylmethyl)pyrrolidine-2-carboxylic acid], for which the concentration for half-maximal inhibition (IC50) is 150 to 10000 nM.

Turning to `COC[C@H]1C[C@@](Cc2ccsn2)(C(=O)O)N(C(=O)c2ccc(C(C)(C)C)c(OC)c2)[C@H]1c1ncc(C)s1` (racemic) [Example 9, rel-(2R,4S,5R)-1-(3-Methoxy-4-tert-butylbenzoyl)-4-(methoxymethyl)-5-(5-methyl-1,3-thiazol-2-yl)-2-(1,2-thiazol-3-ylmethyl)pyrrolidine-2-carboxylic acid], the IC50 is < 150 nM.

For the compound `COC[C@H]1C[C@@](Cn2cccn2)(C(=O)O)N(C(=O)c2ccc(C(C)(C)C)c(OC)c2)[C@H]1c1ncc(C)s1` (racemic) [Example 10, rel-(2R,4S,5R)-1-(3-Methoxy-4-tert-butylbenzoyl)-4-(methoxymethyl)-5-(5-methyl-1,3-thiazol-2-yl)-2-(1H-pyrazol-1-ylmethyl)pyrrolidine-2-carboxylic acid], the IC50 was < 150 nM.

`COC[C@H]1C[C@@](Cn2cccn2)(C(=O)O)N(C(=O)c2ccc(C(C)(C)C)c(OC)c2)[C@H]1c1nccs1` (single isomer, unassigned) [Example 7]: the concentration for half-maximal inhibition (IC50) is < 150 nM.

Regarding `COCC1CC(CC(C)C)(C(=O)O)N(C(=O)c2ccc(C(C)(C)C)c(OC)c2)C1c1ncc(C)s1` (single isomer, unassigned; enantiomer a) [Compound D, reference compound], the half-inhibitory concentration (IC50) was in the range of 150 to 10000 nM.

For the compound `COC[C@H]1C[C@@](Cc2cscn2)(C(=O)O)N(C(=O)c2ccc(C(C)(C)C)c(OC)c2)[C@H]1c1ncc(C)s1` (single isomer, unassigned; enantiomer a) [Example 2], the IC50 was < 150 nM.

Regarding `COC[C@H]1C[C@@](Cc2ccsn2)(C(=O)O)N(C(=O)c2ccc(C(C)(C)C)c(OC)c2)[C@H]1c1nccs1` (single isomer, unassigned; enantiomer a) [Example 5], the IC50 was < 150 nM.

Regarding `COC[C@H]1C[C@@](Cn2cccn2)(C(=O)O)N(C(=O)c2ccc(C(C)(C)C)c(OC)c2)[C@H]1c1ncc(C)s1` (single isomer, unassigned; enantiomer a) [Example 11], the IC50 was < 150 nM.

Regarding `COC[C@H]1C[C@@](Cc2cscn2)(C(=O)O)N(C(=O)c2ccc(C(C)(C)C)c(OC)c2)[C@H]1c1nccs1` (single isomer, unassigned; enantiomer a) [Example 12], the concentration for half-maximal inhibition (IC50) is < 150 nM.

`COC[C@H]1C[C@@](CC(C)C)(C(=O)O)N(C(=O)c2ccc(C(C)(C)C)c(OC)c2)[C@H]1c1nccs1` [Compound B, (2S,4S,5R)-2-isobutyl-1-(3-methoxy-4-tert-butylbenzoyl)-4-methoxymethyl-5-(1,3-thiazol-2-yl)pyrrolidine-2-carboxylic acid, reference compound] registered an IC50 of 150 to 10000 nM.

The record behind these values is patent publication US20070270475A1, “4-Methoxy-Pyrrolidine-2-Carboxylic Acid Compounds and Derivatives Thereof as Hepatitis C Virus Inhibitors” (priority 2004, published 2007).
